Measured values reported in the NIST ThermoML archive (doi:10.1016/j.fluid.2015.07.017).
± gives the expanded uncertainty stated by the source.

Key:
[1] = Boiling temperature at pressure P; settings: Liquid, Ebulliometric method (Recirculating still)
[2] = refractive index (Na D-line) (dimensionless); settings: 298.15 K; 101.33 kPa; Liquid; Standard Abbe refractometry
[3] = 293.15 K; 101.33 kPa; Liquid; Pycnometric method

With `CO` [methanol] the “Boiling temperature at pressure P” value ([1]; 101.33 kPa) was 64.71 ± 0.1 °C, the refractive index [2] was 1.3269 ± 0.0007 and the mass density [3] was 791.1 ± 0.7 kg/m3.
For `CCCOCOC` [1-(methoxymethoxy)propane], the “Boiling temperature at pressure P” value ([1]; 8.17 kPa) was 29.97 ± 0.11 °C, the “Boiling temperature at pressure P” value ([1]; 12.41 kPa) was 38.00 ± 0.11 °C and the “Boiling temperature at pressure P” value ([1]; 18.11 kPa) was 46.03 ± 0.1 °C. The “Boiling temperature at pressure P” value ([1]; 26.67 kPa) was 54.81 ± 0.1 °C, the “Boiling temperature at pressure P” value ([1]; 36.4 kPa) was 62.67 ± 0.1 °C and the “Boiling temperature at pressure P” value ([1]; 44.6 kPa) was 68.11 ± 0.1 °C. For the same molecule, the “Boiling temperature at pressure P” value ([1]; 53.33 kPa) was 73.17 ± 0.1 °C, the “Boiling temperature at pressure P” value ([1]; 59.35 kPa) was 76.2 ± 0.1 °C and the “Boiling temperature at pressure P” value ([1]; 69.65 kPa) was 81.07 ± 0.1 °C. For the same molecule, the “Boiling temperature at pressure P” value ([1]; 79.9 kPa) was 85.2 ± 0.1 °C, the “Boiling temperature at pressure P” value ([1]; 87.9 kPa) was 88.33 ± 0.1 °C and the “Boiling temperature at pressure P” value ([1]; 94.9 kPa) was 90.82 ± 0.1 °C. For the same molecule, the “Boiling temperature at pressure P” value ([1]; 101.33 kPa) was 92.97 ± 0.1 °C, the “Boiling temperature at pressure P” value ([1]; 112 kPa) was 96.14 ± 0.1 °C and the refractive index [2] was 1.3757 ± 0.0007. The mass density [3] was 841.4 ± 0.8 kg/m3.
With `CCCO` [propan-1-ol] the “Boiling temperature at pressure P” value ([1]; 101.33 kPa) was 97.20 ± 0.1 °C, the refractive index [2] was 1.3836 ± 0.0007 and the mass density [3] was 803.7 ± 0.7 kg/m3.
